# Key:
# Assay type in all cases: physicochemical
# [1] = XRPD FWHM of the peak at 8.7±0.2° 2θ (degree of crystal imperfections), method 1; details: Batch 5, tray oven
# Description: (§1) XRPD was performed using a Malvern Panalytical Empyrean diffractometer at ambient conditions. The diffraction pattern was measured at room temperature using an Empyrean Cu LFF HR (45 kV/40 mA) source and PIXcel3D-Medipix3 1×1 detector. The measurement was performed in the range of 2-40° 20 using a scan speed of 0.067335° 2θ/s and a step size of 0.0262606° 2θ. The samples were measured in transmission mode and with a spinner revolution time of 1 second. Approximately 200 mg of sample were placed between two sheets of Kapton Polyimide Thin-film. The measurements were performed using a Soller slit of 0.04 radians and a fixed divergence slit of 0.5° on the incident beam, and a 3 mm Anti scatter slit and a Soller slit of 0.04 radians in the diffracted beam.
# The degree of crystal imperfections was assessed by use of the FWHM as more crystal imperfections might cause peak broadening and lower peak height, which leads to higher FWHM values due to fewer lattice planes with identical orientation contributing to the diffraction peak. Oppositely, in the absence of crystal imperfections, lattice planes with identical orientation increase and result in narrower and higher diffraction peaks leading to smaller FWHM values. The FWHM was calculated using the characteristic peak at 8.7±0.2° 2θ by finding the apex of the peak and measuring the height of the peak applying the x-axis as the baseline (automatic mode) (see FIG. 11) or applying a baseline spanning the two surrounding troughs (manual mode) (see FIG. 12). This value is then divided in half to find the half height. Hereafter the width of the peak at that half height is measured and reported in ° 2θ. Alternatively, the peak at 6.0±0.2° 2θ may also be used to calculate the FWHM.
# (§2) Samples from a batch of SNAC polymorphic form A (Batch 5) with a FWHM of 0.97° 2θ (automatic mode) and a moisture uptake of 1.98% at 65% RH from the beginning were heated to 90, 100, 110, 120, 130, and 140° C., respectively, in a tray oven. The samples were exposed to their respective temperatures for up to 72 h. The sample size was small enough to ensure that the samples equilibrated completely, within a few of minutes, to the oven temperature. Samples were taken during the 72 h of elevated temperature exposure and subjected to XRPD measurements in accordance with method 1 to determine the polymorphic form and impact on crystal imperfections using FWHM with the x-axis as the baseline (automatic mode).
# (§3) Samples from different batches of SNAC polymorphic form A were subjected to a heat treatment in a tray oven and the sample size was small enough to ensure that the samples equilibrated completely and within a couple of minutes to the oven temperature. Samples were taken from the batches before the heat treatment and after the heat treatment and subjected to XRPD measurements in accordance with method 1 to determine the polymorphic form and impact on crystal imperfections using FWHM with the x-axis as the baseline (auto mode). Furthermore, samples were also subjected to DVS measurements in accordance with method 3 to determine the impact of the heat treatment on the hygroscopicity.
# [2] = Polymorphic form determined by XRPD, method 1; details: for Polymorphic form of SNAC determined by XRPD: Batch 5, tray oven
# Description: as §1
# The polymorphic form of the sample was determined by comparison of the diffractogram obtained for the sample with reference diffractograms for the SNAC polymorphs and solvates.
# as §2, §3
# [3] = Dynamic vapour sorption (DVS) moisture uptake, method 3; details: for mass increase when subjected to an increase in relative humidity from about 0% to about 65% RH as determined by DVS: 25° C.; for Moisture absorbed for SNAC at 65% RH determined by DVS: DVS at 25 °C
# Description: Moisture sorption/desorption data were measured by a Dynamic Vapour Sorption Advantage 1 from Surface Measurement Systems. Prior to analysis the samples were dried for up to about 48 h in desiccators containing phosphorus pentoxide. Approximately 20 mg of sample was placed into a balance pan and loaded into the instrument and the sample was then further dried for a minimum of 500 min in the instrument at 0% RH using a nitrogen purge. The resulting sample weight after the further drying was assigned as the 0% start weight and all weight gains and losses was calculated relative to this start weight. Sorption and desorption isotherms were collected over a range from 0 to 90% relative humidity (RH) using a nitrogen purge at 25° C. The threshold for equilibrium used for analysis was 0.002 to 0.0005 dm/dt.
# Furthermore, samples were taken after 24 h of exposure at the indicated elevated temperatures and were subjected to dynamic vapor sorption measurements in accordance with method 3 to determine the hygroscopicity. The moisture uptake was measured at 65% RH. The hygroscopicity is decreased as the moisture absorbed at 65% RH decreases when exposing SNAC polymorphic form A to elevated temperatures for 24 h.
smiles,measurement,setting,value
"O=C([O-])CCCCCCCNC(=O)c1ccccc1O.[Na+] [SNAC, monosodium N-[8-(2-hydroxybenzoyl)-amino]caprylate]",FWHM (automatic mode) for the XRPD peak around 8.7 ± 0.2° 2θ,"[1]; 90 °C, 0 h",0.97 ° 2θ
same,FWHM (automatic mode) for the XRPD peak around 8.7 ± 0.2° 2θ,"[1]; 90 °C, 0.25 h",0.95 ° 2θ
same,FWHM (automatic mode) for the XRPD peak around 8.7 ± 0.2° 2θ,"[1]; 90 °C, 0.5 h",0.95 ° 2θ
same,FWHM (automatic mode) for the XRPD peak around 8.7 ± 0.2° 2θ,"[1]; 90 °C, 1 h",0.92 ° 2θ
same,FWHM (automatic mode) for the XRPD peak around 8.7 ± 0.2° 2θ,"[1]; 90 °C, 6 h",0.92 ° 2θ
same,FWHM (automatic mode) for the XRPD peak around 8.7 ± 0.2° 2θ,"[1]; 90 °C, 24 h",0.89 ° 2θ
same,FWHM (automatic mode) for the XRPD peak around 8.7 ± 0.2° 2θ,"[1]; 90 °C, 48 h",0.89 ° 2θ
same,FWHM (automatic mode) for the XRPD peak around 8.7 ± 0.2° 2θ,"[1]; 90 °C, 72 h",0.89 ° 2θ
same,FWHM (automatic mode) for the XRPD peak around 8.7 ± 0.2° 2θ,"[1]; 100 °C, 0 h",0.97 ° 2θ
same,FWHM (automatic mode) for the XRPD peak around 8.7 ± 0.2° 2θ,"[1]; 100 °C, 0.25 h",1.02 ° 2θ
same,FWHM (automatic mode) for the XRPD peak around 8.7 ± 0.2° 2θ,"[1]; 100 °C, 0.5 h",0.95 ° 2θ
same,FWHM (automatic mode) for the XRPD peak around 8.7 ± 0.2° 2θ,"[1]; 100 °C, 1 h",0.95 ° 2θ
same,FWHM (automatic mode) for the XRPD peak around 8.7 ± 0.2° 2θ,"[1]; 100 °C, 6 h",0.89 ° 2θ
same,FWHM (automatic mode) for the XRPD peak around 8.7 ± 0.2° 2θ,"[1]; 100 °C, 24 h",0.81 ° 2θ
same,FWHM (automatic mode) for the XRPD peak around 8.7 ± 0.2° 2θ,"[1]; 100 °C, 48 h",0.81 ° 2θ
same,FWHM (automatic mode) for the XRPD peak around 8.7 ± 0.2° 2θ,"[1]; 100 °C, 72 h",0.81 ° 2θ
same,FWHM (automatic mode) for the XRPD peak around 8.7 ± 0.2° 2θ,"[1]; 110 °C, 0 h",0.97 ° 2θ
same,FWHM (automatic mode) for the XRPD peak around 8.7 ± 0.2° 2θ,"[1]; 110 °C, 0.25 h",0.92 ° 2θ
same,FWHM (automatic mode) for the XRPD peak around 8.7 ± 0.2° 2θ,"[1]; 110 °C, 0.5 h",0.84 ° 2θ
same,FWHM (automatic mode) for the XRPD peak around 8.7 ± 0.2° 2θ,"[1]; 110 °C, 1 h",0.87 ° 2θ
same,FWHM (automatic mode) for the XRPD peak around 8.7 ± 0.2° 2θ,"[1]; 110 °C, 6 h",0.71 ° 2θ
same,FWHM (automatic mode) for the XRPD peak around 8.7 ± 0.2° 2θ,"[1]; 110 °C, 24 h",0.66 ° 2θ
same,FWHM (automatic mode) for the XRPD peak around 8.7 ± 0.2° 2θ,"[1]; 110 °C, 48 h",0.60 ° 2θ
same,FWHM (automatic mode) for the XRPD peak around 8.7 ± 0.2° 2θ,"[1]; 110 °C, 72 h",0.58 ° 2θ
same,FWHM (automatic mode) for the XRPD peak around 8.7 ± 0.2° 2θ,"[1]; 120 °C, 0 h",0.97 ° 2θ
same,FWHM (automatic mode) for the XRPD peak around 8.7 ± 0.2° 2θ,"[1]; 120 °C, 0.25 h",0.81 ° 2θ
same,FWHM (automatic mode) for the XRPD peak around 8.7 ± 0.2° 2θ,"[1]; 120 °C, 0.5 h",0.76 ° 2θ
same,FWHM (automatic mode) for the XRPD peak around 8.7 ± 0.2° 2θ,"[1]; 120 °C, 1 h",0.71 ° 2θ
same,FWHM (automatic mode) for the XRPD peak around 8.7 ± 0.2° 2θ,"[1]; 120 °C, 6 h",0.63 ° 2θ
same,FWHM (automatic mode) for the XRPD peak around 8.7 ± 0.2° 2θ,"[1]; 120 °C, 24 h",0.58 ° 2θ
same,FWHM (automatic mode) for the XRPD peak around 8.7 ± 0.2° 2θ,"[1]; 120 °C, 48 h",0.58 ° 2θ
same,FWHM (automatic mode) for the XRPD peak around 8.7 ± 0.2° 2θ,"[1]; 120 °C, 72 h",0.53 ° 2θ
same,FWHM (automatic mode) for the XRPD peak around 8.7 ± 0.2° 2θ,"[1]; 130 °C, 0 h",0.97 ° 2θ
same,FWHM (automatic mode) for the XRPD peak around 8.7 ± 0.2° 2θ,"[1]; 130 °C, 0.25 h",0.81 ° 2θ
same,FWHM (automatic mode) for the XRPD peak around 8.7 ± 0.2° 2θ,"[1]; 130 °C, 0.5 h",0.74 ° 2θ
same,FWHM (automatic mode) for the XRPD peak around 8.7 ± 0.2° 2θ,"[1]; 130 °C, 1 h",0.66 ° 2θ
same,FWHM (automatic mode) for the XRPD peak around 8.7 ± 0.2° 2θ,"[1]; 130 °C, 6 h",0.50 ° 2θ
same,FWHM (automatic mode) for the XRPD peak around 8.7 ± 0.2° 2θ,"[1]; 130 °C, 24 h",0.50 ° 2θ
same,FWHM (automatic mode) for the XRPD peak around 8.7 ± 0.2° 2θ,"[1]; 130 °C, 48 h",0.50 ° 2θ
same,FWHM (automatic mode) for the XRPD peak around 8.7 ± 0.2° 2θ,"[1]; 130 °C, 72 h",0.50 ° 2θ
same,FWHM (automatic mode) for the XRPD peak around 8.7 ± 0.2° 2θ,"[1]; 140 °C, 0 h",0.97 ° 2θ
same,FWHM (automatic mode) for the XRPD peak around 8.7 ± 0.2° 2θ,"[1]; 140 °C, 0.25 h",0.68 ° 2θ
same,FWHM (automatic mode) for the XRPD peak around 8.7 ± 0.2° 2θ,"[1]; 140 °C, 0.5 h",0.58 ° 2θ
same,FWHM (automatic mode) for the XRPD peak around 8.7 ± 0.2° 2θ,"[1]; 140 °C, 1 h",0.53 ° 2θ
same,FWHM (automatic mode) for the XRPD peak around 8.7 ± 0.2° 2θ,"[1]; 140 °C, 6 h",0.45 ° 2θ
same,FWHM (automatic mode) for the XRPD peak around 8.7 ± 0.2° 2θ,"[1]; 140 °C, 24 h",0.45 ° 2θ
same,FWHM (automatic mode) for the XRPD peak around 8.7 ± 0.2° 2θ,"[1]; 140 °C, 48 h",0.42 ° 2θ
same,FWHM (automatic mode) for the XRPD peak around 8.7 ± 0.2° 2θ,"[1]; 140 °C, 72 h",0.45 ° 2θ
same,Polymorphic form of SNAC determined by XRPD,"[2]; 120 °C, 48 h",A & B
same,Polymorphic form of SNAC determined by XRPD,"[2]; 120 °C, 72 h",A & B
same,Polymorphic form of SNAC determined by XRPD,"[2]; 130 °C, 6 h",A & B
same,Polymorphic form of SNAC determined by XRPD,"[2]; 130 °C, 24 h",A & B
same,Polymorphic form of SNAC determined by XRPD,"[2]; 130 °C, 48 h",A & B
same,Polymorphic form of SNAC determined by XRPD,"[2]; 130 °C, 72 h",A & B
same,Polymorphic form of SNAC determined by XRPD,"[2]; 140 °C, 1 h",A & B
same,Polymorphic form of SNAC determined by XRPD,"[2]; 140 °C, 6 h",A & B
same,Polymorphic form of SNAC determined by XRPD,"[2]; 140 °C, 24 h",A & B
same,Polymorphic form of SNAC determined by XRPD,"[2]; 140 °C, 48 h",A & B
same,Polymorphic form of SNAC determined by XRPD,"[2]; 140 °C, 72 h",A & B
same,onset time of conversion into polymorphic form B,[2]; at 120° C.,more than 24 h
same,onset time of conversion into polymorphic form B,[2]; at 130° C.,> 1 h
same,onset time of conversion into polymorphic form B,[2]; at 140° C.,> 0.5 h
same,conversion of the polymorphic form,[2]; exposure for up to 72 h at temperatures up to about 110° C.,does not convert
same,mass increase when subjected to an increase in relative humidity from about 0% to about 65% RH as determined by DVS,[3]; sample of FIG. 1,less than 1.0%
same,mass increase when subjected to an increase in relative humidity from about 0% to about 65% RH as determined by DVS,[3]; sample of FIG. 2,about 1.3%
same,mass increase when subjected to an increase in relative humidity from about 0% to about 65% RH as determined by DVS,[3]; sample of FIG. 3,about 2.9%
same,Moisture absorbed for SNAC at 65% RH determined by DVS,"[3]; Batch 5, after 24 h at 90 °C",1.73%
same,Moisture absorbed for SNAC at 65% RH determined by DVS,"[3]; Batch 5, after 24 h at 100 °C",1.37%
same,Moisture absorbed for SNAC at 65% RH determined by DVS,"[3]; Batch 5, after 24 h at 110 °C",1.21%
same,Moisture absorbed for SNAC at 65% RH determined by DVS,"[3]; Batch 5, after 24 h at 120 °C",0.94%
same,Moisture absorbed for SNAC at 65% RH determined by DVS,"[3]; Batch 5, after 24 h at 130 °C",0.81%
same,Moisture absorbed for SNAC at 65% RH determined by DVS,"[3]; Batch 5, after 24 h at 140 °C",0.74%
